Data published in PubChem BioAssay AID1918952 (Molecular Pharmacology Branch, DTP, NCI, 2023).

Test system: LG0703-F948-PDC complex spheroid viability
Experiment: Anticancer human tumor LG0703-F948-PDC patient-derived lung adenocarcinoma cell line growth inhibition
Settings: for IC50: curve of first compound; for viability, T/C: stronger effect = lower value
Method in brief: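 Complex spheroids of tumor cells with HUVEC and human MSCs, exposed to iadademstat combined with other agents. Each agent tested in half-log steps from near clinical Cmax (else 10 microM top), DMSO ≤0.25%.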
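Note: spheroids exposed to agents for seven days before readout.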
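Throughout, for viability, T/C: 100% = DMSO vehicle control wells as normalization base.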

O=C(C=Cc1cccc(S(=O)(=O)Nc2ccccc2)c1)NO + NC1CC1c1ccc(-c2cccc(O)c2)cc1
IC50 (second compound 0.1 µM): 61.1 nM
IC50 (second compound 0.316 µM): 70.6 nM
IC50 (second compound 1 µM): 70.9 nM
IC50 (second compound 3.16 µM): 74.5 nM
IC50 (second compound 10 µM): 95.3 nM
viability, T/C (second compound 0.1 µM, first compound 0.00949 µM): 113%
viability, T/C (second compound 0.1 µM, first compound 0.03 µM): 74.8%
viability, T/C (second compound 0.1 µM, first compound 0.0949 µM): 35.9%
viability, T/C (second compound 0.1 µM, first compound 0.3 µM): 8.61%
viability, T/C (second compound 0.1 µM, first compound 0.949 µM): 1.29%
viability, T/C (second compound 0.1 µM, first compound 3 µM): 0.28%
viability, T/C (second compound 0.316 µM, first compound 0.00949 µM): 113%
viability, T/C (second compound 0.316 µM, first compound 0.03 µM): 83.5%
viability, T/C (second compound 0.316 µM, first compound 0.0949 µM): 39.5%
viability, T/C (second compound 0.316 µM, first compound 0.3 µM): 8.31%
viability, T/C (second compound 0.316 µM, first compound 0.949 µM): 1.3%
viability, T/C (second compound 0.316 µM, first compound 3 µM): 1.01%
viability, T/C (second compound 1 µM, first compound 0.00949 µM): 107%
viability, T/C (second compound 1 µM, first compound 0.03 µM): 93.9%
viability, T/C (second compound 1 µM, first compound 0.0949 µM): 34.8%
viability, T/C (second compound 1 µM, first compound 0.3 µM): 7.01%
viability, T/C (second compound 1 µM, first compound 0.949 µM): 1.57%
viability, T/C (second compound 1 µM, first compound 3 µM): 0.1%
viability, T/C (second compound 3.16 µM, first compound 0.00949 µM): 92.3%
viability, T/C (second compound 3.16 µM, first compound 0.03 µM): 80.8%
viability, T/C (second compound 3.16 µM, first compound 0.0949 µM): 42.2%
viability, T/C (second compound 3.16 µM, first compound 0.3 µM): 6.95%
viability, T/C (second compound 3.16 µM, first compound 0.949 µM): 1.69%
viability, T/C (second compound 3.16 µM, first compound 3 µM): 0.15%
viability, T/C (second compound 10 µM, first compound 0.00949 µM): 90%
viability, T/C (second compound 10 µM, first compound 0.03 µM): 86.7%
viability, T/C (second compound 10 µM, first compound 0.0949 µM): 50%
viability, T/C (second compound 10 µM, first compound 0.3 µM): 7.51%
viability, T/C (second compound 10 µM, first compound 0.949 µM): 1.22%
viability, T/C (second compound 10 µM, first compound 3 µM): 1.1%
